Test results taken from BindingDB's records for patent US12173018 (Venatorx Pharmaceuticals, 2024).

Target: T1, Peptidoglycan D,D-transpeptidase FtsI (UniProt P0AD68)
T1 sequence (P0AD68 whole entry): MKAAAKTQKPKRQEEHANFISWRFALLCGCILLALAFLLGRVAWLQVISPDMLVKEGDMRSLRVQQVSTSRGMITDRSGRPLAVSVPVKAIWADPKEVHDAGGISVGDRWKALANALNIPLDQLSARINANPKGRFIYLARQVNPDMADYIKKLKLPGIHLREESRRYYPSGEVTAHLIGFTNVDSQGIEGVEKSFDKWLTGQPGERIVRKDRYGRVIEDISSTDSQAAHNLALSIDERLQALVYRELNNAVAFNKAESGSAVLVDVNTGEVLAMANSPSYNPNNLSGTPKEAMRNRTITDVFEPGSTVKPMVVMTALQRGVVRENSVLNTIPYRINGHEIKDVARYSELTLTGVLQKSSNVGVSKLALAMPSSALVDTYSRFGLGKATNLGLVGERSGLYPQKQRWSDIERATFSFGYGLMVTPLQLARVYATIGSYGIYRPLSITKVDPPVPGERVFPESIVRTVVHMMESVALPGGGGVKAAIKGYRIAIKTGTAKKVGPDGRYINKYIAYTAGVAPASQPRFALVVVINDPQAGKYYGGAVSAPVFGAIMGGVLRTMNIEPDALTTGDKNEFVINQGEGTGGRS
Experiment: Fluorescence Polarization (FP) Competition Binding Assay
Description: To establish assay conditions for competition binding, an enzyme titration/saturation binding experiment was initially performed. Bocillin-FL was prepared at 0.2 μM in a buffer comprised of 50 mM Hepes (pH 8.0), 300 mM NaCl and 5% (v/v) glycerol. […] FP was measured immediately upon mixing (Excitation, 490 nm; Emission, 520 nm; g-factor, 0.96), using a Cytation3 (BioTek) microplate reader and measured continuously for up to 120 minutes. […] Bocillin-FL was added and the FP immediately measured for 60 minutes (90 minutes for PBP2).

Row | SMILES | EC50 [µM]
1 | NCCN1CCN(C(=O)N[C@@H](C(=O)N[C@H]2Cc3cccc(C(=O)O)c3OB2O)c2ccc(O)c(O)c2Cl)C(=O)C1=O [US12173018, Example 220] | < 30
2 | CCN1CCN(C(=O)NC(C(=O)N[C@H]2Cc3cccc(C(=O)O)c3OB2O)c2ccc(O)c(S(N)(=O)=O)c2)C(=O)C1=O (some centres not stated) [US12173018, Example 143] | < 30
